Patent US7323485B2, “4-(substituted cycloalkylmethyl) imidazole-2-thiones, 4-(substituted cycloalkenylmethyl) imidazole-2-thiones, 4-(substituted cycloalkylmethyl) imidazol-2-ones and 4-(substituted cycloalkenylmethyl) imidazol-2-ones and related compounds” (Allergan, Inc., priority 2002, dated 2008)
Read-outs that look alike come from different tables or passages of the source.

Assays:
[1] = target: T1, alpha2B adrenergic receptors (Homo sapiens, UniProt P18089); experiment: Receptor Selection and Amplification Technology (RSAT) assay, alpha2B; assay type: cell-based; settings: for EC50: NA = not active at concentrations less than 10 micromolar, read-out: Alpha 2B EC50; for Alpha 2B intrinsic activity: fraction of maximal effect of standard full agonist brimonidine (UK14304)
T1 construct: expressed in transfected cells; host or cells: NIH-3T3
T1 sequence (P18089 1-450): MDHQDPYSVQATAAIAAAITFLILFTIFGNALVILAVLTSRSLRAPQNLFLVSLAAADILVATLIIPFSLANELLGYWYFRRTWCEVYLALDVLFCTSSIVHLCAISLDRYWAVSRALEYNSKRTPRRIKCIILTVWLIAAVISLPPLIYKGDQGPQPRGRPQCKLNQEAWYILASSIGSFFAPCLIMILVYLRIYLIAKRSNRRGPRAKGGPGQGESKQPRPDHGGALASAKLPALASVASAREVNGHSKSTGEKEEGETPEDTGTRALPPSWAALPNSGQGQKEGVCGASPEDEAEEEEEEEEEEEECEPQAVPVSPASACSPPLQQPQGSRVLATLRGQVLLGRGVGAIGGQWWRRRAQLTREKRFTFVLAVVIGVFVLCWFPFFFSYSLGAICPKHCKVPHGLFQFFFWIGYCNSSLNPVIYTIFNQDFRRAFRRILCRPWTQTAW
Source text: (§1) The imidazole-2-thione compounds of the invention are agonists of alpha2 adrenergic receptors, particularly they tend to be specific or selective agonists of alpha2B and/or to a lesser extent alpha2C adrenergic receptors, in preference over alpha2A adrenergic receptors. […] Al., 1995, Pharmacol. Toxicol. 76, pp. 308-311 (incorporated herein by reference) and is also described below. Another reference pertinent to this assay is Conklin et al. (1993) Nature 363:274-6, also incorporated herein by reference.
(§2) Receptor Selection and Amplification Technology (RSAT) Assay
(§3) The RSAT assay measures a receptor-mediated loss of contact inhibition that results in selective proliferation of receptor-containing cells in a mixed population of confluent cells. The increase in cell number is assessed with an appropriate transfected marker gene such as β-galactosidase, the activity of which can be easily measured in a 96-well format. Receptors that activate the G protein, Gq, elicit this response. Alpha2 receptors, which normally couple to Gi, activate the RSAT response when coexpressed with a hybrid Gq protein that has a Gi receptor recognition domain, called Gq/i5.
(§4) NIH-3T3 cells are plated at a density of 2×10^6 cells in 15 cm dishes and maintained in Dulbecco's modified Eagle's medium supplemented with 10% calf serum. One day later, cells are cotransfected by calcium phosphate precipitation with mammalian expression plasmids encoding p-SV-β-galactosidase (5-10 μg), receptor (1-2 μg) and G protein (1-2 μg). 40 μg salmon sperm DNA may also be included in the transfection mixture. Fresh media is added on the following day and 1-2 days later, cells are harvested and frozen in 50 assay aliquots. Cells are thawed and 100 μl added to 100 μl aliquots of various concentrations of drugs in triplicate in 96-well dishes. Incubations continue 72-96 hr at 37 EC. After washing with phosphate-buffered saline, β-galactosidase enzyme activity is determined by adding 200 μl of the chromogenic substrate (consisting of 3.5 mM o-nitrophenyl-β-D-galactopyranoside and 0.5% nonidet P-40 in phosphate buffered saline), incubating overnight at 30 EC and measuring optical density at 420 nm. The absorbance is a measure of enzyme activity, which depends on cell number and reflects a receptor-mediated cell proliferation. The EC50 and maximal effect of each drug at each alpha2 receptor is determined. The efficacy or intrinsic activity is calculated as a ratio of the maximal effect of the drug to the maximal effect of a standard full agonist for each receptor subtype. Brimonidine, also called UK14304, the chemical structure of which is shown below, is used as the standard agonist for the alpha2A, alpha2B and alpha2C receptors.
(§5) The results of the RSAT assay with several exemplary compounds of the invention are disclosed in Table 1 above together with the chemical formulas of these examplary compounds. […] NA stands for “not active” at concentrations less than 10 micromolar. As is known EC50 is the concentration at which half of a given compound's maximal activity is observed.

[2] = target: T2, alpha2C adrenergic receptors (Homo sapiens, UniProt P18825); experiment: Receptor Selection and Amplification Technology (RSAT) assay, alpha2C; assay type: cell-based; settings: for EC50: NA = not active at concentrations less than 10 micromolar, read-out: Alpha 2C EC50; for Alpha 2C intrinsic activity: fraction of maximal effect of standard full agonist brimonidine (UK14304)
T2 construct: expressed in transfected cells; host or cells: NIH-3T3
T2 sequence (P18825 1-462): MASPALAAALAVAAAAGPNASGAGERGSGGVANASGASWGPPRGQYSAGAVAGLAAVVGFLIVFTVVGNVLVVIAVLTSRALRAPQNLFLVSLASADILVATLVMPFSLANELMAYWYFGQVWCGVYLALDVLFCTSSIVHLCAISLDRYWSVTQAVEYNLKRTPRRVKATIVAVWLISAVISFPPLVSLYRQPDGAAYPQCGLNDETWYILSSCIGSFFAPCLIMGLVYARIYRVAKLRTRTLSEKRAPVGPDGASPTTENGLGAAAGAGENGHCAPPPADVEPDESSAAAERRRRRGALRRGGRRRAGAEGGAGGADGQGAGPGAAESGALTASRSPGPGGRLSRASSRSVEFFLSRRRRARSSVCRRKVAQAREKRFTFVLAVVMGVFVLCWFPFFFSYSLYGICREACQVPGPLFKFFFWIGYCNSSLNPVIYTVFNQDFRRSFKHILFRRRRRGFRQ
Source text: as §1, §2, §3, §4, §5

[3] = tested on: rats with ligated L5 and L6 spinal nerves; experiment: Chung model of neuropathic pain (tactile allodynia, von Frey hairs); assay type: in vivo; settings: Rattus norvegicus, 0.5 h, 30 min following drug administration, read-out: % Pain Reversal ± SEM
Source text: A model in accordance with Kim and Chung 1992, Pain […], pp 355-363 (Chung model), for chronic pain (in particular peripheral neuropathy) involves the surgical ligation of the L5 (and optionally the L6) spinal nerves on one side in experimental animals. Rats recovering from the surgery gain weight and display a level of general activity similar to that of normal rats. However, these rats develop abnormalities of the foot, wherein the hindpaw is moderately everted and the toes are held together. More importantly, the hindpaw on the side affected by the surgery appears to become sensitive to pain from low-threshold mechanical stimuli, such as that producing a faint sensation of touch in a human, within about 1 week following surgery. This sensitivity to normally non-painful touch is called “tactile allodynia” and lasts for at least two months. The response includes lifting the affected hindpaw to escape from the stimulus, licking the paw and holding it in the air for many seconds. None of these responses is normally seen in the control group.
Rats are anesthetized before surgery. The surgical site is shaved and prepared either with betadine or Novacaine. Incision is made from the thoracic vertebra Xlll down toward the sacrum. Muscle tissue is separated from the spinal vertebra (left side) at the L4-S2 levels. The L6 vertebra is located and the transverse process is carefully removed with a small rongeur to expose the L4-L6 spinal nerves. The L5 and L6 spinal nerves are isolated and tightly ligated with 6-0 silk thread. The same procedure is done on the right side as a control, except no ligation of the spinal nerves is performed.
A complete hemostasis is confirmed, then the wounds are sutured. A small amount of antibiotic ointment is applied to the incised area, and the rat is transferred to the recovery plastic cage under a regulated heat-temperature lamp. On the day of the experiment, at least seven days after the surgery, typically six rats per test group are administered the test drugs by intraperitoneal (i.p.) injection or oral gavage. For i.p. injection, the compounds are formulated in approximately 10 to 50% DMSO and given in a volume of 1 ml/kg body weight.
Tactile allodynia is measured prior to and 30 minutes after drug administration using von Frey hairs that are a series of fine hairs with incremental differences in stiffness. Rats are placed in a plastic cage with a wire mesh bottom and allowed to acclimate for approximately 30 minutes. The von Frey hairs are applied perpendicularly through the mesh to the mid-plantar region of the rats' hindpaw with sufficient force to cause slight buckling and held for 6-8 seconds. The applied force has been calculated to range from 0.41 to 15.1 grams. If the paw is sharply withdrawn, it is considered a positive response. A normal animal will not respond to stimuli in this range, but a surgically ligated paw will be withdrawn in response to a 1-2 gram hair. The 50% paw withdrawal threshold is determined using the method of Dixon, W. J., Ann. Rev. Pharmacol. Toxicol. 20:441-462 (1980). The post-drug threshold is compared to the pre-drug threshold and the percent reversal of tactile sensitivity is calculated based on a normal threshold of 15.1 grams. The results are expressed in percent (%) MPE, where the MPE value reflects the percentage reversal of pain threshold to that of a normal animal (100%). Table 3 below indicates results of this test with Compounds 1, 7 and 29 of the invention, administered i.p. and in oral doses.

| SMILES | EC50 [1] | Alpha 2B intrinsic activity [1] | EC50 [2] | Alpha 2C intrinsic activity [2] | inhibition in vivo at 0.03 mg/kg ([3]; ip, 30 μg/kg i.p.) | inhibition in vivo at 0.1 mg/kg ([3]; ip, 100 μg/kg i.p.) | inhibition in vivo at 1 mg/kg ([3]; ip, 1000 μg/kg i.p.) | inhibition in vivo at 0.1 mg/kg ([3]; po, 100 μg/kg p.o.) |
| --- | --- | --- | --- | --- | --- | --- | --- | --- |
| CCC1=CC(Cc2c[nH]c(=S)[nH]2)CC1 (stereo not drawn) | 750 nM | 0.49 | > 2000 nM | 0.32 | – | – | – | – |
| Cc1cccc2c1CCC2Cc1c[nH]c(=S)[nH]1 (stereo not drawn) | 58 nM | 0.93 | 939 nM | 0.34 | – | – | – | – |
| Fc1ccc2c(c1)CCC2Cc1c[nH]c(=S)[nH]1 (stereo not drawn) | 41 nM | 0.97 | 1110 nM | 0.52 | – | – | – | – |
| COc1ccc2c(c1)CCC2Cc1c[nH]c(=S)[nH]1 (stereo not drawn) | 1590 nM | 0.68 | > 2000 nM | 0.46 | – | – | – | – |
| S=c1[nH]cc(CC2CCc3cc(Br)ccc32)[nH]1 (stereo not drawn) | 158 nM | 0.85 | – | 0.62 | – | – | – | – |
| Cc1ccc2c(c1)C(Cc1c[nH]c(=S)[nH]1)CC2 (stereo not drawn) | 19 nM | 0.92 | 349 nM | 0.69 | – | – | – | – |
| COc1ccc2c(c1)C(Cc1c[nH]c(=S)[nH]1)CC2 (stereo not drawn) | 30 nM | 0.94 | 139 nM | 1.0 | – | – | – | – |
| CC(C)CC1=CCCC1Cc1c[nH]c(=S)[nH]1 (stereo not drawn) | 260 nM | 1.0 | 662 nM | 0.75 | – | – | – | – |
| C=CC1=CCCC1Cc1c[nH]c(=S)[nH]1 (stereo not drawn) | 422 nM | 1.11 | > 2000 nM | 0.57 | – | – | – | – |
| CC=CC1=CCCC1Cc1c[nH]c(=S)[nH]1 (stereo not drawn) | 1620 nM | 0.88 | 2470 nM | 0.72 | – | – | – | – |
| CC1CC(Cc2c[nH]c(=S)[nH]2)C(=O)c2ccccc21 (stereo not drawn) | 523 nM | 0.96 | > 2000 nM | 0.61 | – | – | – | – |
| Cc1cccc2c1C(=O)C(Cc1c[nH]c(=S)[nH]1)CC2 (stereo not drawn) | 29 nM | 0.96 | 66 nM | 0.47 | – | – | – | – |
| O=C1c2c(CO)cccc2CCC1Cc1c[nH]c(=S)[nH]1 (stereo not drawn) | 162 nM | 0.95 | 306 nM | 0.34 | – | – | – | – |
| O=C1c2c(F)cccc2CCC1Cc1c[nH]c(=S)[nH]1 (stereo not drawn) | 172 nM | 0.76 | 107 nM | 0.35 | – | – | – | – |
| S=c1[nH]cc(C[C@H]2CCc3ccccc32)[nH]1 | 7.5 nM | 0.95 | 64 nM | 0.56 | – | – | – | – |
| S=c1[nH]cc(C[C@@H]2CCc3ccccc32)[nH]1 | 24.5 nM | 0.97 | 630 nM | 0.61 | – | – | – | – |
| S=c1[nH]cc(CC2CCC=C2Cl)[nH]1 (stereo not drawn) | 28 nM | 0.9 | 116 nM | 0.55 | – | – | – | – |
| CC1=C(Br)C(Cc2c[nH]c(=S)[nH]2)CC1 (stereo not drawn) | 27 nM | 0.95 | 139 nM | 0.48 | – | – | – | – |
| S=c1[nH]cc(CC2CCC3=C2CCC3)[nH]1 (stereo not drawn) [Compound 1, 4-(1,2,3,4,5,6-hexahydro-pentalen-1-ylmethyl)-1,3-dihydro-imidazole-2-thione] | – | – | – | – | 9 ± 2% | 13 ± 2% | 44 ± 7% | 29 ± 5% |
| S=c1[nH]cc(CC2CCC3=C2CCC3)[nH]1 (stereo not drawn) [drawing 15] | 5 nM | 0.87 | 110 nM | 0.43 | – | – | – | – |
| S=c1[nH]cc(CC2CCc3ccccc32)[nH]1 (stereo not drawn) [drawing 16] | 10 nM | 0.91 | 182 nM | 0.57 | – | – | – | – |
| S=c1[nH]cc(CC2CC=CC2)[nH]1 [drawing 24] | 24 nM | 0.85 | 180 nM | 0.51 | – | – | – | – |
